Assay results taken from US10336761B2, “TGFβ receptor antagonist” (BRISTOL-MYERS SQUIBB COMPANY, priority 2015, dated 2019).

biological target: GST tagged wild type TGFβR1 (Homo sapiens (Human), UniProt P36897); assay: HTRF probe-displacement assay, GST tagged wild type TGFβR1; format: binding; conditions: GST tagged wild type proteins were used instead of HIS-tagged proteins
Protocol: Compounds were dissolved at 10 mM in dimethylsulfoxide (DMSO) and evaluated at eleven concentrations. IC50 values were derived by non-linear regression analysis.

Chain of GST tagged wild type TGFβR1 (P36897 34-503): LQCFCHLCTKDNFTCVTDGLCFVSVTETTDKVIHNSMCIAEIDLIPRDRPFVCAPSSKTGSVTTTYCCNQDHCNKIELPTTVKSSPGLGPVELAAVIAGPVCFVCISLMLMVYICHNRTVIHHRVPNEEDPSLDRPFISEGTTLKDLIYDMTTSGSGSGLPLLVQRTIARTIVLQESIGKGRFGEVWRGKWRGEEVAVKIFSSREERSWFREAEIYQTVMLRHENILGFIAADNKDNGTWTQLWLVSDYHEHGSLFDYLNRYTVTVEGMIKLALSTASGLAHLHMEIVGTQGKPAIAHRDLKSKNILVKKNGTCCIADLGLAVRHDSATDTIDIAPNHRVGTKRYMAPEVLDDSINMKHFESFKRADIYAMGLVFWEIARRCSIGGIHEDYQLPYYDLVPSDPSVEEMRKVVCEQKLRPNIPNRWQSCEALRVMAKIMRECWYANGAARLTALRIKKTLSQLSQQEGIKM

Question: Which IC50 does the source give for Cc1nc(-c2nc(Nc3ccncc3F)c3cccn3n2)ccc1F [Example 74, 3-fluoro-N-[2-(5-fluoro-6-methylpyridin-2-yl)pyrrolo[2,1-f][1,2,4]triazin-4-yl]pyridin-4-amine] here?
Answer: Its IC50 is 6.1 nM.

Question: Which IC50 does the source give for CN1CCN(Cc2ccn3nc(-c4cccc(C(F)F)n4)nc(Nc4ccncc4F)c23)CC1 [Example 122, N-{2-[6-(difluoromethyl)pyridin-2-yl]-5-[(4-methylpiperazin-1-yl)methyl]pyrrolo[2,1-f][1,2,4]triazin-4-yl}-3-fluoropyridin-4-amine] here?
Answer: Its IC50 is 6 nM.

Question: How did the IC50 turn out when O=C(NCCN1CCS(=O)(=O)CC1)c1cnccc1Nc1nc(-c2ccccn2)nn2cccc12 [Example 147, N-[2-(1,1-dioxo-1,4-thiomorpholin-4-yl)ethyl]-4-{[2-(pyridin-2-yl)pyrrolo[2,1-f][1,2,4]triazin-4-yl]amino}pyridine-3-carboxamide] was run?
Answer: Its IC50 is 2600 nM.

Question: For Cc1ccnc(-c2nc(Nc3ccncc3F)c3cccn3n2)c1 [Example 62, 3-fluoro-N-[2-(4-methylpyridin-2-yl)pyrrolo[2,1-f][1,2,4]triazin-4-yl]pyridin-4-amine], which IC50 is on record?
Answer: Its IC50 is 1700 nM.
